Some test systems named below: HS 578T breast; BT-549 breast; MCF7 breast; T-47D breast; MDA-MB-435; NCI/ADR-RES ovarian.
Common to all, as to assay: growth of human tumour cells (NCI), 48 h

For 14 compounds, TGI and GI50 results are on record in PubChem BioAssay (NCI).

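Cells were grown in 96-well plates and exposed to each compound for 48 hours at five concentrations; endpoints were interpolated linearly between bracketing concentrations, or set to the highest concentration if not reached. GI50 marks 50% less growth. Definition used: TGI = concentration required for complete inhibition of growth.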

On to `Cc1cc2c(SCc3ccccc3Cl)nc(N)nc2nc1C`, for which the TGI in the assay with HS 578T breast, in the assay on BT-549 breast, in the assay on MCF7 breast, in the assay on T-47D breast, with MDA-MB-435 and in the assay on NCI/ADR-RES ovarian was more than 100 µM each time.
Consider `COc1cc([C@H]2c3cc(O)c(OC)cc3C[C@]3(O)[C@@H]2CO[C@@H]3O)ccc1O`, for which the TGI in the assay on HS 578T breast, with BT-549 breast, in the assay with MCF7 breast, in the assay on T-47D breast, in the assay with MDA-MB-435 and with NCI/ADR-RES ovarian was more than 100 µM throughout.
Take `O=C(NCc1cccnc1)c1ccc([N+](=O)[O-])o1`: the GI50 in the assay on HS 578T breast is 2.52 µM; in the assay with BT-549 breast it was 9.77 µM; in the assay on MCF7 breast, 0.973 µM; in the assay on T-47D breast, 6.9 µM; in the assay on MDA-MB-435, 1.03 µM; in the assay with NCI/ADR-RES ovarian, 1.66 µM. Also, the TGI is more than 9.5 µM in the assay with HS 578T breast; more than 15.1 µM in the assay with BT-549 breast; 5.21 µM with MCF7 breast; 32.4 µM with T-47D breast; 4.06 µM in the assay on MDA-MB-435; 23.9 µM in the assay on NCI/ADR-RES ovarian.
On to `CCNc1nc(-c2ccc(Cl)c(OC)c2)c(-c2ccnc(NCCNS(=O)(=O)c3ccc(Cl)cc3)n2)s1`, for which the GI50 in the assay with HS 578T breast is 3.98 µM; in the assay with BT-549 breast it was 3.09 µM; in the assay with MCF7 breast it was 3.03 µM; in the assay with T-47D breast, 2.48 µM; with MDA-MB-435, 3.02 µM; in the assay on NCI/ADR-RES ovarian, 3.51 µM. Further, the TGI is 87.2 µM in the assay on HS 578T breast; 38 µM in the assay with BT-549 breast; more than 100 µM in the assay with MCF7 breast; 8.02 µM with T-47D breast; 40.6 µM with MDA-MB-435; more than 100 µM in the assay on NCI/ADR-RES ovarian.
Consider `COC(=O)C(NC(=O)c1ccccc1)c1ccc(OC)c(I)c1` (centres undefined), for which the GI50 with HS 578T breast is 77.1 µM; in the assay with BT-549 breast, more than 100 µM; in the assay with MCF7 breast it was 39.5 µM; in the assay on T-47D breast, 36.6 µM; in the assay with MDA-MB-435, 39.6 µM; in the assay on NCI/ADR-RES ovarian it was 36.4 µM. Further, the TGI in the assay on HS 578T breast, in the assay with BT-549 breast, in the assay on MCF7 breast, in the assay with T-47D breast, in the assay on MDA-MB-435 and with NCI/ADR-RES ovarian was more than 100 µM in each case.
Regarding `CCc1c[nH]c2ncnc(N3CC[C@](N)(CNC(=O)c4ccc(F)cc4F)C3)c12`, the GI50 was 0.513 µM in the assay with HS 578T breast; 0.797 µM with BT-549 breast; 0.716 µM in the assay with MCF7 breast; 0.203 µM with T-47D breast; 12.8 µM with MDA-MB-435; more than 61.2 µM with NCI/ADR-RES ovarian. Besides, the TGI was 24.3 µM in the assay with HS 578T breast; 18.1 µM in the assay with BT-549 breast; more than 100 µM in the assay on MCF7 breast; 11.1 µM with T-47D breast; more than 79.7 µM with MDA-MB-435; more than 100 µM with NCI/ADR-RES ovarian.
With `CN1CCN(Cc2ccc(NC(=O)c3cncc(C#Cc4cnc5cccnn45)c3)cc2C(F)(F)F)CC1`, the GI50 in the assay on HS 578T breast was 0.922 µM; in the assay with BT-549 breast it was 1.74 µM; in the assay on MCF7 breast, 0.707 µM; with T-47D breast, 2.2 µM; in the assay on MDA-MB-435, 1.13 µM; in the assay with NCI/ADR-RES ovarian, 1.83 µM. The TGI in the assay with HS 578T breast worked out at 3.26 µM; with BT-549 breast it was 5.65 µM; in the assay on MCF7 breast, 4.77 µM; in the assay with T-47D breast it was 11.9 µM; in the assay on MDA-MB-435, 3.76 µM; with NCI/ADR-RES ovarian it was 8.1 µM.
For `Cn1c(=O)c(Oc2ccc(F)cc2F)cc2cnc(NC3CCC(O)CC3)nc21` (centres undefined), the GI50 with HS 578T breast, in the assay on BT-549 breast, in the assay with MCF7 breast, in the assay with T-47D breast, with MDA-MB-435 and with NCI/ADR-RES ovarian was more than 25 µM throughout. Also, the TGI in the assay on HS 578T breast, with BT-549 breast, in the assay with MCF7 breast, with T-47D breast, in the assay on MDA-MB-435 and in the assay on NCI/ADR-RES ovarian was more than 25 µM throughout.
Regarding `CCC(=C(c1ccc(OCCN(CC)CC)cc1)c1ccc(OCCN(CC)CC)cc1)c1ccc(Cl)cc1`, the GI50 was 0.668 µM in the assay on HS 578T breast; 0.647 µM in the assay with BT-549 breast; 0.347 µM in the assay with MCF7 breast; 0.574 µM in the assay on T-47D breast; 0.578 µM in the assay with MDA-MB-435; 0.625 µM with NCI/ADR-RES ovarian. In addition, the TGI in the assay on HS 578T breast came to 1.57 µM; in the assay on BT-549 breast, 1.45 µM; in the assay with MCF7 breast, 0.861 µM; with T-47D breast, 1.39 µM; in the assay on MDA-MB-435, 1.07 µM; in the assay on NCI/ADR-RES ovarian it was 1.21 µM.
Take `O=NNc1nc(-c2ccccn2)nc2ccccc12`: the TGI is more than 100 µM in the assay with HS 578T breast; more than 100 µM in the assay with BT-549 breast; more than 100 µM in the assay on MCF7 breast; more than 100 µM with T-47D breast; 63.5 µM with NCI/ADR-RES ovarian.
Turning to `C=CCCC1(CCP(=O)(c2ccccc2)c2ccccc2)OCCO1`, the TGI with HS 578T breast, in the assay with BT-549 breast, in the assay with MCF7 breast, in the assay with MDA-MB-435 and with NCI/ADR-RES ovarian was more than 100 µM in each case.
On to `CC(C)(CCc1nc2ccccc2[nH]1)C(=O)O`, for which the TGI in the assay with HS 578T breast, in the assay on BT-549 breast, in the assay with MCF7 breast, in the assay on T-47D breast, with MDA-MB-435 and in the assay on NCI/ADR-RES ovarian was more than 100 µM each time.
Regarding `CS(=O)(=O)Nc1ccc(Nc2c3ccccc3nc3cc(Cl)ccc23)cc1`, the GI50 in the assay on HS 578T breast is 2.83 µM; in the assay on BT-549 breast it was 3.16 µM; in the assay on MCF7 breast, 0.389 µM; in the assay on T-47D breast, 0.987 µM; in the assay on MDA-MB-435, 3.48 µM; with NCI/ADR-RES ovarian, 3.93 µM. Moreover, the TGI with HS 578T breast stood at 40.4 µM; with BT-549 breast, 20 µM; in the assay with MCF7 breast, 13.4 µM; in the assay on T-47D breast it was 13.3 µM; in the assay with MDA-MB-435, 17.1 µM; in the assay with NCI/ADR-RES ovarian it was 37.5 µM.
`COc1cc(-c2nn(-c3cccc(NC(=O)c4cccc(C(F)(F)F)c4)c3)cc2-c2ccncc2)ccc1Cl`: the GI50 in the assay on HS 578T breast is 1.07 µM; in the assay on BT-549 breast, 2.87 µM; in the assay on MCF7 breast it was 1.43 µM; in the assay with T-47D breast, 2.55 µM; in the assay with NCI/ADR-RES ovarian, 1.09 µM. For the same compound, the TGI in the assay on HS 578T breast is more than 50 µM; in the assay with BT-549 breast, 46.8 µM; in the assay on MCF7 breast it was more than 50 µM; in the assay with T-47D breast it was more than 50 µM; in the assay with NCI/ADR-RES ovarian it was 3.17 µM.
